Test [1] deals with ErbB2 kinase (Homo sapiens, UniProt P04626). Nature of the test: Enzymatic experiment on ErbB2 (HTRF kinEASE-TK). It counts as biochemical. Particulars: ATP 4 μM; read-out: Kinase IC50 (nM) in vitro ErbB2. As to the method: (§1) Enzymatic Experiment on EGFR/ErbB2
(§2) Firstly, preparing 1× reaction buffer required for the kinase, 5× Enzymatic buffer (HEPES 20 mM pH7.0, NaN3 0.1%, BSA 0.05%, sodium orthovanadate 0.5 mM) in the HTRF kinEASE-TK kit was diluted to 1 time with deionized water, 50 nM Supplement Enzymatic buffer (SEB reagent), 1 mM MnCl2, 5 mM MgCl2 and 1 mM DTT were added. Secondly, preparing 5× compound, 10 mM test compound stock solution was diluted in multiple steps with DMSO in a 96-well compound plate to prepare 100× compound as initial concentration, which was then used as the first concentration to perform a 3-fold gradient dilution with DMSO to obtain 10 concentrations. Afterwards, 1 μl gradient dilution was added to 19 μl 1× reaction buffer to prepare 5× compound for use. Then 2 μl 5× compound was transferred from the 96 well plate into a 384-well plate. To the compound-free control wells was added with 2 μl the following liquid: 19 μl 1× reaction buffer with addition of 1 μl DMSO. To the blank control wells was added 2 μl 250 mM EDTA. The third step was enzymatic reaction, the kinase, substrate (TK Substrate-biotin) and ATP were formulated into 2.5× enzyme/substrate mixture and 2.5×ATP solution using 1× reaction buffer respectively. The final concentration of ErbB2 kinase was 0.06 ng/μl, the final concentration of ATP was 4 μM; the final concentration of EGFR kinase was 0.06 units/μl, the final concentration of ATP was 1.65 μM; 4 μl 2.5× enzyme/substrate mixture was added to a 384-well plate, which was incubated at room temperature for 5 minutes; 4 μl 2.5×ATP solution was added to each well and the mixture was allowed to react for 30 minutes at room temperature. The fourth step was termination of the reaction, HTRF Detection buffer was used to prepare a mixture of 2×TK Antibody-Eu(K) and Sa-XL665, the amount of TK Antibody-Eu(K) was 5 μl per well. After the enzymatic reaction was performed for 30 minutes, 10 μl of the above liquid was added to the 384-well plate and the mixture was allowed to react at room temperature for 1 hour. The data was measured on EnVision™, the laser of 337 nm wavelength was selected as the excitation light, RFU665 nM and RFU620 nM were measured, and […]/RFU620 nM×10000 was used as the final data for analysis.
In general terms: TR-FRET usually uses a lanthanide donor and a delayed reading to cut background.

The test system of test [2] is BT-474. Nature of the test: Proliferation inhibition assay in vitro, BT-474 (CellTiter-Glo). In kind it is cell-based. Particulars: Homo sapiens, 72 hours, read-out: IC50(nM) cell BT-474. As to the method: (§3) Proliferation Inhibition Assay In Vitro of Cell Lines
(§4) 1. Cell culture and inoculation: on the first day of the experiment, normal cultured cells were taken in the exponential growth phase, the cells were dispersed by digesting, then the cell density was adjusted to 8.8×10^4 cells/mL for BT-474 and 6.6×10^4 cells/mL for N87, 90 μl of which were inoculated to each well in a 96-well cell culture plate; after inoculation, the microplate was placed at condition of 37° C., 5% CO2 overnight. 2. Dosing to cells: on the second day of the experiment, the microplate was taken out from incubator, […], of 10× compound was separately added to each well of the microplate, 2 duplicated wells were set for each concentration, 9 dosing concentrations were set for each compound. According to different cell lines, the initial concentration of each compound was different. Upon completion of addition, the microplate was placed at condition of 37° C., 5% CO2 for 72 hours. 3. Data acquisition: the microplate was taken out from the incubator and allowed to stand at room temperature to equilibrate for 30 minutes. 100 μl CellTiter-Glo® Luminescent Cell Viability Assay reaction solution which had been equilibrated at room temperature was added to each well and the microplate was shaken at 1300 rpm for 2 minutes at room temperature. The microplate was centrifuged at 2000 rpm for 1 minute in a HERAEUS Multifuge X1R and then allowed to equilibrate at room temperature for 10 minutes. The […] signal was measured on EnVision™.

Test [3] concerns the target EGFR kinase (Homo sapiens, UniProt P00533). Briefly: Enzymatic experiment on EGFR (HTRF kinEASE-TK). In kind it is biochemical. The note with it: ATP 1.65 μM; read-out: Kinase IC50 (nM) in vitro EGFR. As to the method: as §1, §2
The subject of test [4] is N87. Briefly: Proliferation inhibition assay in vitro, N87 (CellTiter-Glo). Particulars: Homo sapiens; 72 hours; read-out: IC50(nM) cell N87. In kind it is cell-based. On the procedure:
as §3, §4

Structures are written as SMILES.

As usually defined, the IC50 is the point on the concentration scale where inhibition reaches its midpoint.

Chain of EGFR kinase (P00533 25-1210): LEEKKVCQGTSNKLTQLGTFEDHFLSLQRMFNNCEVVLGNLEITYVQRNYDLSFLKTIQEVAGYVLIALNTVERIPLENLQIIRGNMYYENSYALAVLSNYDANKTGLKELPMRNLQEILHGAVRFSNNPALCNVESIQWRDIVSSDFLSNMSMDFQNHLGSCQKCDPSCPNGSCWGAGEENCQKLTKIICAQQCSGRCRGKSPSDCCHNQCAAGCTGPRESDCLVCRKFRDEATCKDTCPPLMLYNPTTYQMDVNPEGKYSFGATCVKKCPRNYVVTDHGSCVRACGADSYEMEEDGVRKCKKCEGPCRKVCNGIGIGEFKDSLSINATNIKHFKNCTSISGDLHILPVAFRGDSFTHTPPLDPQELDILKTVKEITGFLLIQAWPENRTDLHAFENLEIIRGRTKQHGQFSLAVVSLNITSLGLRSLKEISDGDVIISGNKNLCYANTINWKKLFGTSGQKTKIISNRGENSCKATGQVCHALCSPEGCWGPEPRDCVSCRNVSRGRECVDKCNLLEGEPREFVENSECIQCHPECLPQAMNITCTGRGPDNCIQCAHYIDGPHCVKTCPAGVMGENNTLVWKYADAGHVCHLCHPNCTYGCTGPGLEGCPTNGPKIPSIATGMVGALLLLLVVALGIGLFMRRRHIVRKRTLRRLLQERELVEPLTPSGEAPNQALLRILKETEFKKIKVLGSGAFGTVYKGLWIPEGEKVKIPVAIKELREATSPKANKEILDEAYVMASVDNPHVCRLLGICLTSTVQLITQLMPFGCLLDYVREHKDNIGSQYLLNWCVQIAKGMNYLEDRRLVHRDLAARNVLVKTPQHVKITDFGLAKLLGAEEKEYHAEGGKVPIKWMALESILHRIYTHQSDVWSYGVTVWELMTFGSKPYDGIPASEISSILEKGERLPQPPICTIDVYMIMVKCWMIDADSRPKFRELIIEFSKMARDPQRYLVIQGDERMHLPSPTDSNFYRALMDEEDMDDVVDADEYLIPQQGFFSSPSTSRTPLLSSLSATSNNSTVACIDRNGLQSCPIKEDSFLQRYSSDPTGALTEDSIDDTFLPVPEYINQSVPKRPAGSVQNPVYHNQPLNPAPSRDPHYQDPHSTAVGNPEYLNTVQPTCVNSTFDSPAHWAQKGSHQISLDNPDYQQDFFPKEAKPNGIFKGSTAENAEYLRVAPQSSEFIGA
Chain of ErbB2 kinase (P04626 23-1255): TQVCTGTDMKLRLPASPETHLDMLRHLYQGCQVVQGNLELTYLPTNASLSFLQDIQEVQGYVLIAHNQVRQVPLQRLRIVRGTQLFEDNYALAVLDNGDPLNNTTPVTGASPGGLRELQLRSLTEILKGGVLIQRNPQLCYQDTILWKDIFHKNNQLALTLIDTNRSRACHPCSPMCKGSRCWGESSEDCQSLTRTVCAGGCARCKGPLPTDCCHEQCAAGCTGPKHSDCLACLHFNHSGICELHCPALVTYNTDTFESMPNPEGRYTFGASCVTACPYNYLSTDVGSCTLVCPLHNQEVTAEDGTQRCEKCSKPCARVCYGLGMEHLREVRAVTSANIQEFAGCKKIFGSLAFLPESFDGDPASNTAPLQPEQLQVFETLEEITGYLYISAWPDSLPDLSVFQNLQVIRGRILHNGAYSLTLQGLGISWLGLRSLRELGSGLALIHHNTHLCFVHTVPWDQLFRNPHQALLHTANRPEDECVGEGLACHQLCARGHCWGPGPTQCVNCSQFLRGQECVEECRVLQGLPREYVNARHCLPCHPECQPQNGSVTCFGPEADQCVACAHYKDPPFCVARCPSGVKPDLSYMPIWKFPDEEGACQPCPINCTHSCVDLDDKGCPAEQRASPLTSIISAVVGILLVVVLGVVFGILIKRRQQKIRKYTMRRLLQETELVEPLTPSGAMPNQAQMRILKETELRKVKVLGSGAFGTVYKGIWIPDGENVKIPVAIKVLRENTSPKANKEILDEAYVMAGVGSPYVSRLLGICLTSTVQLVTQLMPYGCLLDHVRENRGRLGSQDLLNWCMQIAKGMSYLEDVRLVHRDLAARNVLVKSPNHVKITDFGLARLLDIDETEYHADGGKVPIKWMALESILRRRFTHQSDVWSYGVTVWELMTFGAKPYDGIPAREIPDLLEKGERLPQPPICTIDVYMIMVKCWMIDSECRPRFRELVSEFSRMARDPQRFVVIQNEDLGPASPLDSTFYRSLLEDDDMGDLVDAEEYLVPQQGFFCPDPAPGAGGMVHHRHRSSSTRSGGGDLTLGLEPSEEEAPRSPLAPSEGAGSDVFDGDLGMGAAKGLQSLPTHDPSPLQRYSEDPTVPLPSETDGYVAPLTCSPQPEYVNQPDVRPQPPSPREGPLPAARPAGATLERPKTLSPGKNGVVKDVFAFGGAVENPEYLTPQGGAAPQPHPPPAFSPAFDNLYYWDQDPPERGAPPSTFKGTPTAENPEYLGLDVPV

For the compound `Cc1cc(Nc2ncnc3ccc(NC4=NCC5(CCN(C(=O)OC(C)(C)C)CC5)O4)cc23)ccc1Oc1cc2nncn2cn1` [Embodiment 25, tert-butyl 2-((4-((4-([1,2,4]triazolo[4,3-c]pyrimidin-7-yloxy)-3-methylphenyl)amino)quinazolin-6-yl)amino)-1-oxa-3,8-diazaspiro[4.5]dec-2-en-8-carboxylate], the IC50 in test [1] worked out at 53.3 nM; in test [2], 984 nM; in test [3] it was 499 nM; in test [4] it was 464 nM.

On to `Cc1cc(Nc2ncnc3ccc(NC4=NC5(CO4)CN(C(=O)OC(C)(C)C)C5)cc23)ccc1Oc1cc2nncn2cn1` [Embodiment 26], for which the IC50 is 3.8 nM in test [1], 122 nM in test [2], 96.8 nM in test [3] and 130 nM in test [4].

Regarding `Cc1cc(Nc2ncnc3ccc(NC4=NC5(CO4)CC(O)C5)cc23)ccc1Oc1cc2nncn2cn1` (stereo not shown) [Embodiment 27, 6-((4-((4-([1,2,4]triazolo[4,3-c]pyrimidin-7-yloxy)-3-methylphenyl)amino)quinazolin-6-yl)amino)-7-oxa-5-azaspiro[3,4]oct-5-en-2-ol], the IC50 in test [1] turned out to be 1.92 nM; in test [2], 112 nM; in test [3] it was 8.1 nM; in test [4] it was 543 nM.

Regarding `Cc1cc(Nc2ncnc3ccc(NC4=NC5(CO4)CN(C)C5)cc23)ccc1Oc1cc2nncn2cn1` [Embodiment 30, N^4-(4-([1,2,4]triazolo[4,3-c]pyrimidin-7-yloxy)-3-methylphenyl)-N^6-(2-methyl-7-oxa-2,5-diazaspiro[3.4]oct-5-en-6-yl)quinazoline-4,6-diamine], the IC50 in test [1] worked out at 4.9 nM; in test [2], 141 nM; in test [3], 17.3 nM; in test [4], 771 nM.

Turning to `Cc1cc(Nc2ncnc3ccc(NC4=NCC5(CCN(C)CC5)O4)cc23)ccc1Oc1cc2nncn2cn1` [Embodiment 31, N^4-(4-([1,2,4]triazolo[4,3-c]pyrimidin-7-yloxy)-3-methylphenyl)-N^6-(8-methyl-1-oxa-3,8-diazaspiro[4.5]dec-2-en-2-yl)quinazoline-4,6-diamine], the IC50 turned out to be 10.1 nM in test [1], 187 nM in test [2], 57.4 nM in test [3] and 433 nM in test [4].

As for `CNC(=O)CN1CCC(Oc2cc3c(Nc4ccc(Oc5cc6nncn6cn5)c(C)c4)ncnc3cc2OC)CC1` [Embodiment 32, 2-(4-(7-methoxy-4-(3-methyl-4-([1,2,4]triazolo[4,3-c]pyrimidin-7-yloxy)anilino)quinazolin-6-yl)oxy-1-piperidinyl)-N-methylacetamide], the IC50 in test [1] amounted to 4.3 nM; in test [2], 92.6 nM; in test [3], 2 nM; in test [4], 440 nM.

With `COCC(=O)Nc1cccc(-c2ccc3ncnc(Nc4ccc(Oc5cc6nncn6cn5)c(C)c4)c3c2)c1` [Embodiment 34, N-(3-(4-((4-([1,2,4]triazolo[4,3-c]pyrimidin-7-yloxy)-3-methylphenyl)amino)quinazoline-6-yl)phenyl)-2-methoxyacetamide], the IC50 amounted to 2.1 nM in test [1], 55.6 nM in test [2], 8.2 nM in test [3] and 46.3 nM in test [4].

`Cc1cc(Nc2ncnc3ccc(-c4cccc(N)c4)cc23)ccc1Oc1cc2nncn2cn1` [Embodiment 35]: the IC50 in test [1] was found to be 1.1 nM; in test [2], 49.6 nM; in test [3], 10.9 nM; in test [4], 52.9 nM.

Take `Cc1cc(Nc2ncnc3ccc(-c4ccc(CNCCNS(C)(=O)=O)o4)cc23)ccc1Oc1cc2nncn2cn1` [Embodiment 36, N-(2-(((5-(4-((4-([1,2,4]triazolo[4,3-c]pyrimidin-7-yloxy)-3-methylphenyl)amino)quinazolin-6-yl)furan-2-yl)methyl)amino)ethyl)methylsulfonamide]: the IC50 in test [1] was 1.5 nM; in test [2], 21.5 nM; in test [3], 1.9 nM; in test [4], 47.5 nM.

As for `CCOC(=O)Nc1cccc(-c2ccc3ncnc(Nc4ccc(Oc5cc6nncn6cn5)c(C)c4)c3c2)c1` [Embodiment 38, ethyl (3-(4-((4-([1,2,4]triazolo[4,3-c]pyrimidin-7-yloxy)-3-methylphenyl)amino)quinazoline-6-yl)phenyl)carbamate], the IC50 was 5 nM in test [1], 186 nM in test [2], 28.1 nM in test [3] and 86.6 nM in test [4].

With `C=CC(=O)N1CCC(Oc2cc3c(Nc4ccc(Oc5cc6nncn6cn5)c(C)c4)ncnc3cc2OC)CC1` [Embodiment 41, 1-(4-((4-((4-([1,2,4]triazolo[4,3-c]pyrimidin-7-yloxy)-3-methylphenyl)amino)-7-methoxyquinazolin-6-yl)oxy)piperidin-1-yl)pro-2-en-1-one], the IC50 in test [1] was determined as 4.3 nM; in test [2] it was 6.9 nM; in test [3] it was 1.3 nM; in test [4] it was 11.7 nM.

On to `C=C(F)C(=O)N1CCC(Oc2cc3c(Nc4ccc(Oc5cc6nncn6cn5)c(C)c4)ncnc3cc2OC)CC1` [Embodiment 42, 1-(4-((4-((4-([1,2,4]triazolo[4,3-c]pyrimidin-7-yloxy)-3-methylphenyl)amino)-7-methoxyquinazolin-6-yl)oxy)piperidin-1-yl)-2-fluoroprop-2-en-1-one], for which the IC50 in test [1] was 5.2 nM; in test [2], 36.7 nM; in test [3], 8.3 nM; in test [4], 39.2 nM.

For `Cc1cc(Nc2ncnc3ccc(NC4=NC5(CCC5)CO4)cc23)ccc1Oc1cc2nncn2cn1` [Embodiment 44, N^4-(4-([1,2,4]triazolo[4,3-c]pyrimidin-7-yloxy)-3-methylphenyl)-N^6-(7-oxa-5-azaspiro[3.4]oct-5-en-6-yl)quinazoline-4,6-diamine], the IC50 in test [1] worked out at 1.43 nM; in test [2], 41 nM; in test [3] it was 11.6 nM; in test [4], 46 nM.

For the compound `Cc1cc(Nc2ncnc3ccc(NC4=N[C@H](C(C)C)CO4)cc23)ccc1Oc1cc2nncn2cn1` [Embodiment 45, (R)—N^4-(4-([1,2,4]triazolo[4,3-c]pyrimidin-7-yloxy)-3-methylphenyl)-N^6-(4-isopropyl-4,5-dihydrooxazol-2-yl)quinazoline-4,6-diamine], the 50% inhibitory concentration (IC50) was determined as 2.8 nM in test [1], 85.4 nM in test [2], 53.4 nM in test [3] and 93.4 nM in test [4].

On to `Cc1cc(Nc2ncnc3ccc(NC4=NCC5(CCOCC5)O4)cc23)ccc1Oc1cc2nncn2cn1` [Embodiment 46, N^4-(4-([1,2,4]triazolo[4,3-c]pyrimidin-7-yloxy)-3-methylphenyl)-N^6-(1,8-dioxa-3-azaspiro[4.5]dec-2-en-2-yl)quinazoline-4,6-diamine], for which the IC50 was found to be 12 nM in test [1], 172 nM in test [2], 51.6 nM in test [3] and 316 nM in test [4].

Regarding `Cc1cc(Nc2ncnc3ccc(NC4=NC5(CCOCC5)CO4)cc23)ccc1Oc1cc2nncn2cn1` [Embodiment 47, N^4-(4-([1,2,4]triazolo[4,3-c]pyrimidin-7-yloxy)-3-methylphenyl)-N^6-(3,8-dioxa-1-azaspiro[4.5]dec-1-en-2-yl)quinazoline-4,6-diamine], the IC50 in test [1] was 2.6 nM; in test [2], 35 nM; in test [3], 31.4 nM; in test [4], 68.4 nM.

For the origin of these results see patent US10828305B2 (SHANGHAI PHARMACEUTICALS HOLDING CO., LTD., priority 2016, dated 2020).
